Assay [1] relates to oligodendrocyte precursor cells (OPCs). The assay is described as follows: inositol on purified oligodendroglial cultures: OPC number (PDGFRa staining). In kind it is cell-based. How it is done:
FIG. 1 illustrates the functional implications of inositol in oligodendroglia survival and proliferation. Inositol was added to purified oligodendroglial cultures and cells were analyzed for effects on proliferation, survival and differentiation by immunohistochemistry under the fluorescent microscopy. OPCs were analyzed by staining with antibody against PDGFRa and visualized in green fluorescence; and oligodendrocytes with that against MBP in red. […] Depletion of inositol in the medium results in a fifty percent loss of oligodendrocyte precursor cells and thirty percent loss in oligodendrocytes. […] A culture condition containing 40 μM inositol in which the count of the numbers of living OPCs was normalized as 1, as a baseline control. The beginnings of culture of OPCs are equal in terms of OPC number in culture dish in all conditions. Inositol was added to each OPC culture at zero, 200 nM, 1 μM, 10 μM, 40 μM, 100 μM, and 200 μM. Since the OPCs only respond to platelet-derived growth factor PDGF, a potent mitogen, for proliferation, the condition containing 40 μM inositol and PDGF was set as a positive control. […] Such a positive effect reached about 70% of that in the positive control. […] The results are graphically illustrated in FIG. 2

For assay [2], the system named is primary hippocampal neurons. The assay can be described thus: synaptic development in primary hippocampal neurons (Bassoon/Homer immunostaining). In kind it is cell-based, rats. Here is the method: Primary hippocampal neurons were prepared from rats at E18. In brief, dissected hippocampi were incubated in 0.05% trypsin at 37° C. for 20 minutes and plated at a density of ˜30,000 cells per coverslip. Dissociated cells were plated on poly-L-lysine and incubated in a cell culture incubator with 5.0% CO2. Cytosine arabinoside was added at a final concentration of 2 μM per well 2 days in vitro to prevent glia cell overgrowth. For studies of inositol, neurons were either grown in inositol-free medium or in inositol-free medium supplemented with 40 μm inositol. After day 4 in vitro, neurons were grown either in inositol-free medium or in inositol-free medium supplemented with 40 μm or 200 μM inositol. At the first time of treatment at 4 days in vitro, the entire medium was exchanged for fresh medium containing nutrients, or control medium without nutrients. At the time of subsequent nutrient additions, approximately ½ of the medium was exchanged and replaced with nutrient-containing medium or control medium without nutrients. Neurons were processed for immunostaining at 14 days in vitro, i.e. after 10 days of chronic treatment. […] We determined this both by automated quantitative immunostaining for the presynaptic marker Bassoon or excitatory postsynaptic Homer, as shown in FIGS. 6 and 7 (p<0.05). […] Further, the experiment supports that the size of postsynaptic sites is larger when inositol is added, indicating more efficient synaptic transmission (p<0.05) (see, FIG. 9). Confocal imaging was performed on a Leica TCS SPE DM2500 microscope equipped with one spectral PMT. Fluorochromes imaged include Alexa 488, Alexa 555, and Alexa 647 (Invitrogen). Green fluorescence represents Bassoon presynaptic, red Homer postsynaptic, blue MAP2 dendrites. […] There was noticeable lack of growth and synapses which was visible while imaging.

The test system of assay [3] is oligodendrocyte-DRG cocultures. The assay can be described thus: dose-response of inositol on oligodendrocyte-DRG coculture: myelin deposition and extent. Format: cell-based. How it is done: FIG. 4 illustrates the utility of dual-fluorescence labeling of OPCs in green and oligodendrocytes (Oligo) in red (left), as well as myelin deposition along the DRG neuronal fibers in red (right). It is to examine a dose-response of the inositol on oligodendrocyte-DRG coculture. Inositol was added to purified oligodendrocyte-DRG cocultures and cells were analyzed for effects on proliferation, survival differentiation and myelination. […] FIG. 5 illustrates the inositol effects on the control myelin extent in a dose-responsive manner. In the coculture system, neurofibers were included to validate the effects on myelin extent. […] Taken together, oligodendroglia rely on neuronal inositol for survival, proliferation, differentiation and the instruction of the generation of the appropriate number of […] internodes and the extent of wrapping.

Assay [4] relates to oligodendrocytes (Oligo). The assay is described as follows: inositol on purified oligodendroglial cultures: Oligo number (MBP staining). Format: cell-based. Here is the method:
FIG. 1 illustrates the functional implications of inositol in oligodendroglia survival and proliferation. Inositol was added to purified oligodendroglial cultures and cells were analyzed for effects on proliferation, survival and differentiation by immunohistochemistry under the fluorescent microscopy. OPCs were analyzed by staining with antibody against PDGFRa and visualized in green fluorescence; and oligodendrocytes with that against MBP in red. […] Depletion of inositol in the medium results in a fifty percent loss of oligodendrocyte precursor cells and thirty percent loss in oligodendrocytes.
It may relate to the different mechanisms by which the OPCs respond to higher level of inositol and to the PDGF. Taken together, it is a novel finding that inositol at higher level promotes OPCs differentiation into mature Oligo.

The mark [5] stands for this setting: depletion of inositol in the medium.
[6] abbreviates: increasing inositol from 40 μM to 200 μM, 14 days in vitro, p<0.05.

Take `O[C@H]1[C@H](O)[C@@H](O)[C@H](O)[C@@H](O)[C@H]1O` [inositol]: in assay [1] (200 μM compared to the 40 μM in the base medium), the “OPC and oligodendrocyte health” value is “significantly increased”. Besides, the “loss of oligodendrocyte precursor cells” value in assay [1] (setting [5]) was “fifty”. Moreover, the “quantification of OPCs vs baseline control at 40 μM inositol” value in assay [1] (inositol 200 nM, p<0.05) was “significantly decreased”; in assay [1] (inositol 1 μM, p<0.05) it was “significantly decreased”; in assay [1] (inositol 10 μM, p<0.05) it was “significantly decreased”; in assay [1] (inositol at zero, p<0.05) it was “significantly decreased”. In assay [1] (inositol 200 μM), the “positive effect on OPCs number relative to the positive control (40 μM inositol and PDGF)” value is recorded as “about 70%”. For the same molecule, the “OPCs number vs baseline control at 40 μM inositol” value in assay [1] (inositol 200 μM, p<0.05) is “significantly increased”. In addition, the oligodendroglial survival result in assay [1] (inositol supplementation in purified oligodendroglia cultures) is listed as “significantly promotes oligodendroglial survival”. Moreover, the “overall response of OPC number to inositol” value in assay [1] (zero to 200 μM) was “dose-dependent manner”. Also, in assay [2] (depletion of inositol), the “health of the neurons (confocal imaging)” value is “poor health of the neurons”. Moreover, the “formation of functional synapses and overall neuron health” value in assay [2] (elevated level of inositol supplement) was “significantly enhances the formation of functional synapses and overall neuron health”. Also, the “density of synaptic specializations, excitatory postsynaptic Homer” value in assay [2] (setting [6]) is “substantially elevates”. The “density of synaptic specializations, presynaptic marker Bassoon” value in assay [2] (setting [6]) was “substantially elevates”. Also, the “overall health of neurons (confocal imaging)” value in assay [2] (inositol 40 μM) and in assay [2] (inositol 200 μM) was “significantly promotes the overall health of neurons” throughout. Moreover, the “density of synaptic sites where both Bassoon and Homer co-localize” value in assay [2] (inositol added, p<0.05) was “strong inositol effect”. Further, in assay [2] (inositol added, p<0.05), the “size of postsynaptic sites” value is on record as “larger”. The “myelin deposition along DRG neuronal fibers” value was “the amount of red labeling and appearance of myelin were inappropriate” in assay [3] (absence of inositol); “myelin was wrapping around the neuronal fiber” in assay [3] (baseline condition, 40 μM inositol); “more myelin has been deposited along the neuronal fibers” in assay [3] (inositol 200 μM). The “myelin internodes formed (myelin extent)” value in assay [3] (absence of inositol, compared to control base medium at 40 μM) was “few myelin internodes were formed”; in assay [3] (inositol 200 μM compared to the controls), “more and longer myelin internodes”. Moreover, the “quantification of Oligo numbers vs baseline at 40 μM inositol” value is reported as “significantly decreased” in assay [4] (absence of inositol, p<0.05) and “significantly decreased” in assay [4] (inositol 200 nM, p<0.05). Moreover, the loss in oligodendrocytes entry in assay [4] (setting [5]) is given as “thirty”. In assay [4] (inositol 200 μM, p<0.05), the “Oligo numbers vs baseline at 40 μM inositol” value was “rise and appear a statistical significance”.
For PDGF [reference compound], the “Oligo number vs baseline at 40 μM inositol” value in assay [4] (condition containing PDGF with 40 μM inositol, p<0.05) is listed as “decreased significantly”.

The record behind these values is US10525016B2, “Nutritional compositions containing an elevated level of inositol and uses thereof” (Mead Johnson Nutrition Company, priority 2015, dated 2020).
